Test results taken from patent US5763597A, “Orally active adenosine kinase inhibitors” (priority 1996, dated 1998).

Columns and labels:
[1] = test system: liver enzymes and total bilirubin in female SA rats; test: Liver toxicity (serum liver enzymes and bilirubin); format: in vivo; conditions: rat, 2 x 37.5 μmole/kg iv infusion, 12 h after second dose; for Total Bilirubin: vehicle 0.10 ±0.04; for SGPT: vehicle 80 ±10; for SGOT: vehicle 102 ±12; for Alkaline Phosphatase: vehicle 140 ±50
Protocol: Female SA rats (150-200 g) were anesthetized with halothane and a chronic catheter was placed in the internal jugular vein. The animals were allowed to recover for 3 days. […] Twelve hours later, an additional 37.5 μmole/kg was infused over 40 minutes (total dose=75 μmole/kg). Twelve hours after the second dose, the animals were anesthetized with halothane and exsanguinated through the descending aorta. Liver enzymes (serum glutamic-oxaloacetic transaminase (SGOT), serum glutamic-pyruvic transaminase (SGPT), alkaline phosphatase) and total bilirubin in the serum samples were determined by a commercial laboratory.

adenosine kinase = test: AK inhibition (adenosine kinase activity, [U-14C] adenosine); format: biochemical, partially purified pig heart or recombinant human; conditions: 0.5 μM adenosine, 1 mM ATP, pH 7.0, 20 min; pig heart or recombinant human enzyme
Protocol: Adenosine kinase activity was measured essentially as described by Yamada et al. Biochim. Biophys. Acta 660, 3643 (1988) with a few minor modifications. Assay mixtures contained 50 mM TRIS-maleate buffer, pH 7.0, 0.1% BSA, 1 mM ATP 1 mM MgCl2, 0.5 μM [U-^14 C] adenosine (400-600 mCi/mmol) and varying duplicate concentrations of inhibitor. […] The amount of ^14 C-AMP was quantified by scintillation counting.

[2] = test system: carrageenan paw swelling in rats; test: Anti-inflammatory activity, carrageenan paw swelling; format: in vivo; conditions: rat, swelling after 3 hours; for Carrageenan Paw (% inh) ip: 10 mg/kg ip, 30 min before carrageenan; for Carrageenan Paw (% inh) po: 10 mg/kg po, 1 h before carrageenan
[3] = test system: formalin-induced pain in rats; test: Analgesic activity, formalin paw model; format: in vivo; conditions: rat, oral, 20 mg/kg; for % Inhibition Phase 1 Composite score: Phase 1 (1.7-5 min post-formalin); for % Inhibition Phase 2 Composite score: Phase 2 (10.3-30 min post-formalin); for % Inhibition Phase 2 Licking/biting: Phase 2, licking/biting incidences
Source text: Pharmacol. Exper. Ther., 250:3, 915-922 (1989). See also, Life Sciences 51:171-76 (1992). These models measure pain avoidance and tolerance in response to a regulated stimulus, and compare the response of animals before and after they are given test compound. Formalin Paw Assay In this assay, injection of formalin, an irritant, into the hindpaw of rats typically evokes a biphasic response of pain-related behaviors. […] Phase I behavior is thought to be a direct effect of the irritant on nociceptors at the injection site while phase 2 behavior is thought to include a hyperalgesic component mediated by sensitization of neuronal elements within the spinal cord. Studies from other laboratories have found the first portion of Phase 2 (sometimes referred to as Phase 2a) to be most responsive to pharmacological manipulation. Rats (male, Simonsen) weighing between 100-200 g, are used in the present experiments. For screening purposes drugs are administered orally 90 min prior to initiation of formalin test. […] The rat is then immediately placed in a separate plexiglass box and scoring (described below) of the animal's behavior is begun at 1.7 min after formalin injection. […] This sequence is repeated over a 30 min period. […] Scores are continuously recorded directly onto an Excel spreadsheet.

[4] = test system: maximal electroshock seizures (hind limb tonic extension) in male SA rats; test: Anticonvulsant activity, maximal electroshock (MES) model; format: in vivo; conditions: rat, ip; ">5" = HTE inhibited in fewer than 50% of animals at 5 mg/kg screen; ">>" (written >) = no activity, "<" = maximal activity at stated dose; read-out: Anticonvulsant ED50 (MES) ip

In the case of `C[C@H]1O[C@@H](n2cc(I)c3c(N)ncnc32)[C@H](O)[C@@H]1O` [REF. A, reference compound], the “Total Bilirubin” value [1] is reported as 0.76 mg/dL and the SGPT [1] is reported as 76 IU/L.
In the case of `NC[C@H]1O[C@@H](n2nc(Br)c3c(N)ncnc32)[C@H](O)[C@@H]1O` [REF. B, 4amino-1-(5-amino-5-deoxy-1-D-ribofuranosyl)-3-bromopyrazolo[3,4d]pyrimidine, reference compound], the “Total Bilirubin” value [1] is reported as 0.30 mg/dL, the SGPT [1] is reported as 41 IU/L and the SGOT [1] is reported as 100 IU/L.
`C[C@H]1O[C@@H](n2cc(-c3ccccc3)c3c(Nc4cc(F)cc(F)c4)ncnc32)[C@H](O)[C@@H]1O` [compound 10] showed an IC50 (adenosine kinase) of 1 nM.
For `C[C@H]1O[C@@H](n2cc(-c3ccccc3)c3c(Nc4ccc(F)c(F)c4)ncnc32)[C@H](O)[C@@H]1O` [compound 11], the IC50 (adenosine kinase) was 4 nM.
With `COc1ccc(Nc2ncnc3c2c(-c2ccccc2)cn3[C@@H]2O[C@H](C)[C@@H](O)[C@H]2O)cc1` [compound 13] the IC50 (adenosine kinase) was 6 nM.
Molecule `C[C@H]1O[C@@H](n2cc(-c3cccc(Cl)c3)c3c(Nc4ccccc4)ncnc32)[C@H](O)[C@@H]1O` [compound 15] has an IC50 (adenosine kinase) of 16 nM.
Work on `Cc1ccc(-c2cn([C@@H]3O[C@H](C)[C@@H](O)[C@H]3O)c3ncnc(Nc4ccccc4)c23)cc1` [compound 16] yielded an IC50 (adenosine kinase) of 9 nM.
`C[C@H]1O[C@@H](n2cc(-c3ccccc3)c3c(Nc4cccc(Cl)c4)ncnc32)[C@H](O)[C@@H]1O` [compound 17] showed an IC50 (adenosine kinase) of 17 nM.
For `Cc1cccc(Nc2ncnc3c2c(-c2ccccc2)cn3[C@@H]2O[C@H](C)[C@@H](O)[C@H]2O)c1` [compound 18], the IC50 (adenosine kinase) was 4 nM.
In the case of `C[C@H]1O[C@@H](n2cc(-c3ccccc3)c3c(Nc4cccc(F)c4)ncnc32)[C@H](O)[C@@H]1O` [compound 19], the IC50 (adenosine kinase) is reported as 2 nM.
Work on `C[C@H]1O[C@@H](n2cc(-c3ccccc3)c3c(Nc4ccc(O)cc4)ncnc32)[C@H](O)[C@@H]1O` [compound 20] yielded an IC50 (adenosine kinase) of 32 nM.
In the case of `C[C@H]1O[C@@H](n2cc(-c3ccc(F)cc3)c3c(Nc4ccccc4)ncnc32)[C@H](O)[C@@H]1O` [compound 24], the IC50 (adenosine kinase) is reported as 1 nM, the “Carrageenan Paw (% inh) ip” value [2] is reported as 35.6 % inh and the “Carrageenan Paw (% inh) po” value [2] is reported as 21.3 % inh.
In the case of `COc1ccc(-c2cn([C@@H]3O[C@H](C)[C@@H](O)[C@H]3O)c3ncnc(Nc4ccc(F)cc4)c23)cc1` [compound 25], the IC50 (adenosine kinase) is reported as 10 nM, the “% Inhibition Phase 1 Composite score” value [3] is reported as 88.4% and the “% Inhibition Phase 2 Composite score” value [3] is reported as 91.9%. The “% Inhibition Phase 2 Licking/biting” value [3] was 100%.
With `CCOc1ccc(Nc2ncnc3c2c(-c2ccccc2)cn3[C@@H]2O[C@H](C)[C@@H](O)[C@H]2O)cc1` [compound 28] the IC50 (adenosine kinase) was 4 nM, the “Carrageenan Paw (% inh) ip” value [2] was 22.2 % inh and the “Carrageenan Paw (% inh) po” value [2] was 31.0 % inh. For the same molecule, the “% Inhibition Phase 1 Composite score” value [3] was 22.5%, the “% Inhibition Phase 2 Composite score” value [3] was 46.8% and the “% Inhibition Phase 2 Licking/biting” value [3] was 83%.
In the case of `CCc1ccc(Nc2ncnc3c2c(-c2ccccc2)cn3[C@@H]2O[C@H](C)[C@@H](O)[C@H]2O)cc1` [compound 29], the IC50 (adenosine kinase) is reported as 20 nM, the “Carrageenan Paw (% inh) ip” value [2] is reported as 46.1 % inh and the “Carrageenan Paw (% inh) po” value [2] is reported as 10.7 % inh.
In the case of `C[C@H]1O[C@@H](n2cc(-c3cccc([N+](=O)[O-])c3)c3c(Nc4ccc(F)cc4)ncnc32)[C@H](O)[C@@H]1O` [compound 30], the IC50 (adenosine kinase) is reported as 28 nM.
In the case of `COc1ccc(-c2cn([C@@H]3O[C@H](C)[C@@H](O)[C@H]3O)c3ncnc(Nc4ccc(C(N)=O)cc4)c23)cc1` [compound 31], the IC50 (adenosine kinase) is reported as 2 nM, the “Carrageenan Paw (% inh) ip” value [2] is reported as 17.2 % inh and the “Carrageenan Paw (% inh) po” value [2] is reported as 0 % inh.
Molecule `C[C@H]1O[C@@H](n2cc(-c3ccccc3)c3c(NCc4ccccc4)ncnc32)[C@H](O)[C@@H]1O` [compound 38] has an IC50 (adenosine kinase) of 30 nM.
`CSc1ccc(Nc2ncnc3c2c(-c2ccccc2)cn3[C@@H]2O[C@H](C)[C@@H](O)[C@H]2O)cc1` [compound 40] showed an IC50 (adenosine kinase) of 2 nM.
`C[C@H]1O[C@@H](n2c(Br)c(-c3ccccc3)c3c(Nc4ccc(F)cc4)ncnc32)[C@H](O)[C@@H]1O` [compound 41] gave an IC50 (adenosine kinase) of 42 nM.
`C[C@H]1O[C@@H](n2cc(-c3ccccc3)c3c(Nc4ccc(N)cc4)ncnc32)[C@H](O)[C@@H]1O` [compound 43] was tested, and the IC50 (adenosine kinase) was 3 nM and the ED50 [4] was 5 mg/kg.
With `C[C@H]1O[C@@H](n2nc(-c3ccccc3)c3c(Nc4ccccc4)ncnc32)[C@H](O)[C@@H]1O` [compound 86] the IC50 (adenosine kinase) was 4.5 nM.
For `[N-]=[N+]=NC[C@H]1O[C@@H](n2nc(-c3ccccc3)c3c(Nc4ccccc4)ncnc32)[C@H](O)[C@@H]1O` [compound 87], the IC50 (adenosine kinase) was 4.5 nM.
In the case of `OC[C@H]1O[C@@H](n2nc(-c3ccccc3)c3c(Nc4ccccc4)ncnc32)[C@H](O)[C@@H]1O` [compound 88], the IC50 (adenosine kinase) is reported as 5 nM.
`COc1ccc(Nc2ncnc3c2c(-c2ccccc2)nn3[C@@H]2O[C@H](C)[C@@H](O)[C@H]2O)cc1` [compound 89] gave an IC50 (adenosine kinase) of 17 nM.
`COc1ccc(Nc2ncnc3c2c(-c2ccccc2)nn3[C@@H]2O[C@H](CN=[N+]=[N-])[C@@H](O)[C@H]2O)cc1` [compound 90] showed an IC50 (adenosine kinase) of 8 nM.
`C[C@H]1O[C@@H](n2nc(-c3ccccc3)c3c(Nc4ccc(Cl)cc4)ncnc32)[C@H](O)[C@@H]1O` [compound 91] showed an IC50 (adenosine kinase) of 11 nM.
`[N-]=[N+]=NC[C@H]1O[C@@H](n2nc(-c3ccccc3)c3c(Nc4ccc(Cl)cc4)ncnc32)[C@H](O)[C@@H]1O` [compound 92] was tested, and the IC50 (adenosine kinase) was 17 nM.
`Cc1ccc(-c2nn([C@@H]3O[C@H](CN=[N+]=[N-])[C@@H](O)[C@H]3O)c3ncnc(Nc4ccccc4)c23)cc1` [compound 93] was tested, and the IC50 (adenosine kinase) was 20 nM.
With `COc1ccc(-c2nn([C@@H]3O[C@H](CN=[N+]=[N-])[C@@H](O)[C@H]3O)c3ncnc(Nc4ccccc4)c23)cc1` [compound 94] the IC50 (adenosine kinase) was 3 nM.
`COc1ccc(-c2nn([C@@H]3O[C@H](CN=[N+]=[N-])[C@@H](O)[C@H]3O)c3ncnc(Nc4ccc(C)cc4)c23)cc1` [compound 95] was tested, and the IC50 (adenosine kinase) was 7 nM.
`[N-]=[N+]=NC[C@H]1O[C@@H](n2nc(-c3ccc(Cl)cc3)c3c(Nc4ccccc4)ncnc32)[C@H](O)[C@@H]1O` [compound 96] gave an IC50 (adenosine kinase) of 15 nM.
For `CCOCc1ccc(Nc2ncnc3c2c(-c2ccccc2)cn3[C@@H]2O[C@H](C)[C@@H](O)[C@H]2O)cc1` [compound 125], the IC50 (adenosine kinase) was 2 nM, the “Carrageenan Paw (% inh) ip” value [2] was 24.4 % inh and the “Carrageenan Paw (% inh) po” value [2] was 0.0 % inh.
`C[C@H]1O[C@@H](n2cc(-c3ccccc3)c3c(Nc4ccc(CC#N)cc4)ncnc32)[C@H](O)[C@@H]1O` [compound 126] was tested, and the IC50 (adenosine kinase) was 1 nM.
With `C[C@H]1O[C@@H](n2cc(-c3ccccc3)c3c(Nc4ccc(I)cc4)ncnc32)[C@H](O)[C@@H]1O` [compound 128] the IC50 (adenosine kinase) was 4 nM, the “Carrageenan Paw (% inh) ip” value [2] was 18.9 % inh and the “Carrageenan Paw (% inh) po” value [2] was 0.0 % inh.
With `C[C@H]1O[C@@H](n2cc(-c3ccccc3)c3c(Nc4ccc(NC(=O)C(F)(F)F)cc4)ncnc32)[C@H](O)[C@@H]1O` [compound 129] the IC50 (adenosine kinase) was 2 nM, the “Total Bilirubin” value [1] was 0.52 mg/dL and the SGPT [1] was 54 IU/L. The SGOT [1] was 162 IU/L, the “Alkaline Phosphatase” value [1] was 110 IU/L and the “Carrageenan Paw (% inh) ip” value [2] was 48.9 % inh. For the same molecule, the “Carrageenan Paw (% inh) po” value [2] was 35.7 % inh.
For `C[C@H]1O[C@@H](n2cc(-c3cccc(N)c3)c3c(Nc4ccc(F)cc4)ncnc32)[C@H](O)[C@@H]1O` [compound 131], the IC50 (adenosine kinase) was 3 nM, the “Total Bilirubin” value [1] was 0.10 mg/dL and the SGPT [1] was 65 IU/L. The SGOT [1] was 120 IU/L, the “Alkaline Phosphatase” value [1] was 169 IU/L and the “Carrageenan Paw (% inh) ip” value [2] was 44.2 % inh. The “Carrageenan Paw (% inh) po” value [2] was 15.9 % inh.
`C[C@H]1O[C@@H](n2cc(-c3ccc(C#N)cc3)c3c(Nc4ccc(F)cc4)ncnc32)[C@H](O)[C@@H]1O` [compound 132] gave an IC50 (adenosine kinase) of 10 nM.
In the case of `C[C@H]1O[C@@H](n2cc(-c3ccc(CNC(N)=O)cc3)c3c(Nc4ccc(F)cc4)ncnc32)[C@H](O)[C@@H]1O` [compound 197], the “Carrageenan Paw (% inh) ip” value [2] is reported as 16.3 % inh and the “Carrageenan Paw (% inh) po” value [2] is reported as 21.5 % inh.
